Experimental data published in paper PMC4286194 (Biochemical Journal, 2015).

Experiments:
[1] = system: Bone-marrow-derived macrophages; experiment: IL-10 secretion (BIOPLEX) in LPS-stimulated macrophages; assay type: cell-based, mouse; settings: for EC50: Mus musculus, Macrophage, read-out: EC50 for elevation of IL-10 secretion; for IL-10 production at optimal dose: dasatinib 300 nM, bosutinib 3 μM, HG-9-91-01 500 nM, LPS-stimulated
Experimental: The concentration of TNFα, IL-6, IL-10 and IL-12p40 in cell-free culture supernatants were measured using the Bio-Plex Pro Assay system (Bio-Rad).

BRSK2 = biological target: T1, BRSK2 (Homo sapiens, UniProt Q8IWQ3); experiment: Kinase profiling; assay type: biochemical
T1 sequence (Q8IWQ3 1-736): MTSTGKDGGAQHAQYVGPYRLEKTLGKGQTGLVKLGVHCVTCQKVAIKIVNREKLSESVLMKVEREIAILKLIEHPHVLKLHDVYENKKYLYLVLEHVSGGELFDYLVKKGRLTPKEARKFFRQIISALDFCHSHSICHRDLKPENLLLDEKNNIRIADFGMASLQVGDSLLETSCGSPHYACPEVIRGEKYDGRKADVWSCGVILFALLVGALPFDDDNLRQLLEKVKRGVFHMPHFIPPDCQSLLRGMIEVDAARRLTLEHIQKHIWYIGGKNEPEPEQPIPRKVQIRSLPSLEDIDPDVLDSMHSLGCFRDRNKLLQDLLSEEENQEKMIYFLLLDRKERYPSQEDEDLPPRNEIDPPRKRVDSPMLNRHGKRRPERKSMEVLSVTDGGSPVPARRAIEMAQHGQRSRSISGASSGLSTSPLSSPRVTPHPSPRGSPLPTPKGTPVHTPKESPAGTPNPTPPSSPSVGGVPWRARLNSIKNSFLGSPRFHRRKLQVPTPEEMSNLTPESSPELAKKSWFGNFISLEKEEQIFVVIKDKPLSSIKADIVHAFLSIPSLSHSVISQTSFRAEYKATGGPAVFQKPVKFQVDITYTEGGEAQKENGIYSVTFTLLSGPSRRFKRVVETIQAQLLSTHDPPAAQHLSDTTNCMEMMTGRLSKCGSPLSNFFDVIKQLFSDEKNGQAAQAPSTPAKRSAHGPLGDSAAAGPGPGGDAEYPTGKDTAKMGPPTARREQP

DYRK3 = biological target: T2, DYRK3 (Homo sapiens, UniProt O43781); experiment: Kinase profiling; assay type: biochemical
T2 sequence (O43781 1-588): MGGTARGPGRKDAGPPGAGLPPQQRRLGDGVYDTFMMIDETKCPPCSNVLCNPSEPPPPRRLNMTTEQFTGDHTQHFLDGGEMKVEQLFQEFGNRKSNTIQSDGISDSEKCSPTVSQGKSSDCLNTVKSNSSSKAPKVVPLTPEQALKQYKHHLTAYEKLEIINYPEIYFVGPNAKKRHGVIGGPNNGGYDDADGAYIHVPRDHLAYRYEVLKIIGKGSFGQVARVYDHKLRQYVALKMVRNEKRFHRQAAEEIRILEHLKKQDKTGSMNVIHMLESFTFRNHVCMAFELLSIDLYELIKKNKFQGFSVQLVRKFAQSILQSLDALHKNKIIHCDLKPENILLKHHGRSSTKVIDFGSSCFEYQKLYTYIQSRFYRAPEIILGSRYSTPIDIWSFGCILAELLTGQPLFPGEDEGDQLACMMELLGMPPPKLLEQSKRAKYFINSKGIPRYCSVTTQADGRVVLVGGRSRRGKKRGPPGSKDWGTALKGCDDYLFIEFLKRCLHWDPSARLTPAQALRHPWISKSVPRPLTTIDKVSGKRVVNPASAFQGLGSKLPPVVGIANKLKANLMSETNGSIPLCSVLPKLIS

MAP4K3 = biological target: T3, MAP4K3 (Homo sapiens, UniProt Q8IVH8); experiment: Kinase profiling; assay type: biochemical
T3 sequence (Q8IVH8 1-894): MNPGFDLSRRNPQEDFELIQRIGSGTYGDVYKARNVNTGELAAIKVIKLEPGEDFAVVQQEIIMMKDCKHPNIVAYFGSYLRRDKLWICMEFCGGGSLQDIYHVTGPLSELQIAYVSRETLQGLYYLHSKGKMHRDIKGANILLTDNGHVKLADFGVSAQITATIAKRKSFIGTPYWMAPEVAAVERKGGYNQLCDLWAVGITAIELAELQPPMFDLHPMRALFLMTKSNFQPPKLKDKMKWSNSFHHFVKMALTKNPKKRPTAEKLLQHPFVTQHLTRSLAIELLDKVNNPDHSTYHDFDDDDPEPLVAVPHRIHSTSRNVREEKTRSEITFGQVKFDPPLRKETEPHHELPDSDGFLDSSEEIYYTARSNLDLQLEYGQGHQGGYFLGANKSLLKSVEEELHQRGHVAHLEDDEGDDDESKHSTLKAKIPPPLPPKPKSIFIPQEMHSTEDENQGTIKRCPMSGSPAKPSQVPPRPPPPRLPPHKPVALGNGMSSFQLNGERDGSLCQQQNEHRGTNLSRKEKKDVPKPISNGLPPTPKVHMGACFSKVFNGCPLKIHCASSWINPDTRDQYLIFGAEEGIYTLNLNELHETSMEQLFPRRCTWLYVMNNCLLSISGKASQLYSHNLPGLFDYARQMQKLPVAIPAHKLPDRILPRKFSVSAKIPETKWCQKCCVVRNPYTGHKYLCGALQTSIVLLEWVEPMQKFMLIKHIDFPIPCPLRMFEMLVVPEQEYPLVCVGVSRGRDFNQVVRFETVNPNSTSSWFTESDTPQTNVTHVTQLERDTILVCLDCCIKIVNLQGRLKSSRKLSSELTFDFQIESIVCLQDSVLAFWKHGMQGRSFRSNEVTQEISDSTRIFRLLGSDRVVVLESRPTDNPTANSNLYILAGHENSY

p38 gamma MAPK = biological target: T4, p38 gamma MAPK (Homo sapiens, UniProt P53778); experiment: Kinase profiling; assay type: biochemical
T4 sequence (P53778 1-367): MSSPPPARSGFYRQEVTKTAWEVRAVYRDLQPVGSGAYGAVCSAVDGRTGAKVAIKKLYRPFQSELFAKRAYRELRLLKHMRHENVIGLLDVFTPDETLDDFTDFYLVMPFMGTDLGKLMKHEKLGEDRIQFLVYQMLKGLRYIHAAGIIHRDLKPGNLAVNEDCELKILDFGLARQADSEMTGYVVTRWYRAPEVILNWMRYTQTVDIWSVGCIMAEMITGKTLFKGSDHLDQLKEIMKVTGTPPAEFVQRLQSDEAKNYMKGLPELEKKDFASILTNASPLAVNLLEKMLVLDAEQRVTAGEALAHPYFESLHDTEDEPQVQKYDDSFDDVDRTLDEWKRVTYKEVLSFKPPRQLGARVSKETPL

PKA = PKA (Homo sapiens, UniProt P17612); experiment: Kinase profiling; assay type: biochemical
TTBK2 = TTBK2 (Homo sapiens, UniProt Q6IQ55); experiment: Kinase profiling; assay type: biochemical
Sequence of TTBK2 (Q6IQ55 whole entry): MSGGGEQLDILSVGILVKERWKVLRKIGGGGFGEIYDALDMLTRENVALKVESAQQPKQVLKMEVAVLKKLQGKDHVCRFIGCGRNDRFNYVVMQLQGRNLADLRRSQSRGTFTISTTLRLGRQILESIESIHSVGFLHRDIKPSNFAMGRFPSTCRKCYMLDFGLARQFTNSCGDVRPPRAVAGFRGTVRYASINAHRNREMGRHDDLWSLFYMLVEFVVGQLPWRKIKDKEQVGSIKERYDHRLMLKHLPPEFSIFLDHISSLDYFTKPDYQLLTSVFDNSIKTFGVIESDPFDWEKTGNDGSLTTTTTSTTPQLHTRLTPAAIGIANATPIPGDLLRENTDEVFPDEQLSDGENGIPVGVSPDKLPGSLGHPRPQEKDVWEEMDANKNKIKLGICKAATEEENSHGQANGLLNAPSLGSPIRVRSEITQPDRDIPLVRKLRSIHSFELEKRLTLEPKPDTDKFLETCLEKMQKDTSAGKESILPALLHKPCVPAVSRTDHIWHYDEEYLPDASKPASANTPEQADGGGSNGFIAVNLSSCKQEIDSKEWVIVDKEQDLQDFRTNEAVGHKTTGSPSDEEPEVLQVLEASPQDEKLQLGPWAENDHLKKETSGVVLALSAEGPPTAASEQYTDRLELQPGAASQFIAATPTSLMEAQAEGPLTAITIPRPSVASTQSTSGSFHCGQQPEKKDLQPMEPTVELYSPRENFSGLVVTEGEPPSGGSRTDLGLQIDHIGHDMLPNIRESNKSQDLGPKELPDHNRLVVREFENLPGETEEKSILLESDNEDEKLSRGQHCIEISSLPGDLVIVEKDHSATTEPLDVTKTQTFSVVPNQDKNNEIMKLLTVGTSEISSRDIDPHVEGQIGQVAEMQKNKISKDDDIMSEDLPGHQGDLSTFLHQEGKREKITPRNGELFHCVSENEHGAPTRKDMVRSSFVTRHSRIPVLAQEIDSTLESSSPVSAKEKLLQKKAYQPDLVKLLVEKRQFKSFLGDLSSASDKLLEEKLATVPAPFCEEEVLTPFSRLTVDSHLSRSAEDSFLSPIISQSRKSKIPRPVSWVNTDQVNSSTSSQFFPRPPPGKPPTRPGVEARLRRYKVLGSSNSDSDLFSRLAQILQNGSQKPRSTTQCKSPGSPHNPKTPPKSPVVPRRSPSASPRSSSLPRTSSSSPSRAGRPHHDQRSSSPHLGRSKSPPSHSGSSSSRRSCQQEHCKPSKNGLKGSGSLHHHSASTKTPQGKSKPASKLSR

| Structure (SMILES) | EC50 [1] | IL-10 production at optimal dose [1] | remaining activity at 0.1 µM (BRSK2) | remaining activity at 1 µM (BRSK2) | remaining activity at 0.1 µM (DYRK3) | remaining activity at 1 µM (DYRK3) | remaining activity at 0.1 µM (MAP4K3) | remaining activity at 1 µM (MAP4K3) | remaining activity at 0.1 µM (p38 gamma MAPK) | remaining activity at 0.1 µM (PKA) | remaining activity at 1 µM (PKA) | remaining activity at 0.1 µM (TTBK2) | remaining activity at 1 µM (TTBK2) | remaining activity at 1 µM (p38 gamma MAPK; 1 µM) |
| --- | --- | --- | --- | --- | --- | --- | --- | --- | --- | --- | --- | --- | --- | --- |
| COc1cc(Nc2c(C#N)cnc3cc(OCCCN4CCN(C)CC4)c(OC)cc23)c(Cl)cc1Cl [Bosutinib, bosutinib] | 510 nM | induced IL-10 production to similar levels as HG-9-91-01 | 107 ± 12% | 120 ± 4% | 85 ± 11% | 90 ± 16% | 3% | 1% | 88 ± 3% | 111 ± 16% | 105 ± 7% | 87 ± 6% | 92 ± 6% | – |
| Cc1nc(Nc2ncc(C(=O)Nc3c(C)cccc3Cl)s2)cc(N2CCN(CCO)CC2)n1 [Dasatinib] | 110 nM | induced IL-10 production to similar levels as HG-9-91-01 | 102 ± 14% | 108 ± 13% | 98 ± 7% | 104 ± 9% | 88 ± 15% | 54 ± 1% | 100 ± 4% | 110 ± 12% | 121 ± 27% | 110 ± 5% | 117 ± 7% | 105 ± 7% |
